Laboratory results published in ChEMBL document CHEMBL3227994, “Novel application of proton nuclear magnetic resonance spectroscopy in the identification of 2'-chloronordiazepam metabolites in the dog” (J Med Chem, 1979).

Key:
[1] = Drug excretion in Beagle dog feces assessed as nonconjugated form of 2'-chloro-4'-hydroxy nordiazepam at 10 mg/kg, po after 4 days by two-dimensional TLC analysis; type: ADME, organism-based, Canis lupus familiaris; set-up: dose 10 mg/kg, route oral; conditions: in vivo, 96 h
[2] = Drug excretion in Beagle dog urine at 10 mg/kg, po measured within 3 days by liquid scintillation spectrophotometric analysis; type: ADME, organism-based, Canis lupus familiaris; set-up: dose 10 mg/kg, route oral; conditions: in vivo, 72 h
[3] = Drug excretion in dog urine assessed as conjugated form of lorazepam at 10 mg/kg, iv; type: ADME, organism-based, Canis lupus familiaris; set-up: dose 10 mg/kg, route intravenous; conditions: in vivo
[4] = Drug excretion in Beagle dog urine assessed as nonconjugated form of 2'-chloro-4'-hydroxy nordiazepam at 10 mg/kg, po after 4 days by two-dimensional TLC analysis; type: ADME, organism-based, Canis lupus familiaris; set-up: dose 10 mg/kg, route oral; conditions: in vivo, 96 h
[5] = Drug excretion in Beagle dog feces assessed as conjugated form of compound at 10 mg/kg, po after 4 days by two-dimensional TLC analysis; type: ADME, organism-based, Canis lupus familiaris; set-up: dose 10 mg/kg, route oral; conditions: in vivo, 96 h
[6] = Drug excretion in Beagle dog urine assessed as nonconjugated form of 2'-chloro-9-hydroxy nordiazepam at 10 mg/kg, po after 4 days by two-dimensional TLC analysis; type: ADME, organism-based, Canis lupus familiaris; set-up: dose 10 mg/kg, route oral; conditions: in vivo, 96 h
[7] = Drug excretion in Beagle dog feces assessed as conjugated form of 2'-chloro-4'-hydroxy nordiazepam at 10 mg/kg, po after 4 days by two-dimensional TLC analysis; type: ADME, organism-based, Canis lupus familiaris; set-up: dose 10 mg/kg, route oral; conditions: in vivo, 96 h
[8] = Drug excretion in Beagle dog urine assessed as conjugated form of lorazepam at 10 mg/kg, po after 4 days by two-dimensional TLC analysis; type: ADME, organism-based, Canis lupus familiaris; set-up: dose 10 mg/kg, route oral; conditions: in vivo, 96 h
[9] = Drug metabolism in Beagle dog urine assessed as formation of 2'-chloro-4'-hydroxy nordiazepam at 10 mg/kg, po after 4 days by TLC analysis; type: ADME, organism-based, Canis lupus familiaris; set-up: dose 10 mg/kg, route oral; conditions: in vivo, 96 h
[10] = Drug excretion in Beagle dog feces assessed as nonconjugated form of compound at 10 mg/kg, po after 4 days by two-dimensional TLC analysis; type: ADME, organism-based, Canis lupus familiaris; set-up: dose 10 mg/kg, route oral; conditions: faeces, read-out: Drug excretion
[11] = Drug excretion in Beagle dog urine assessed as nonconjugated form of compound at 10 mg/kg, po after 4 days by two-dimensional TLC analysis; type: ADME, organism-based, Canis lupus familiaris; set-up: dose 10 mg/kg, route oral; conditions: read-out: Drug excretion
[12] = Drug excretion in Beagle dog urine at 10 mg/kg, po measured within 6 days by liquid scintillation spectrophotometric analysis; type: ADME, organism-based, Canis lupus familiaris; set-up: dose 10 mg/kg, route oral; conditions: in vivo, 144 h
[13] = Drug excretion in Beagle dog urine assessed as conjugated form of 2'-chloro-4'-hydroxy nordiazepam at 10 mg/kg, po after 4 days by two-dimensional TLC analysis; type: ADME, organism-based, Canis lupus familiaris; set-up: dose 10 mg/kg, route oral; conditions: in vivo, 96 h
[14] = Drug excretion in Beagle dog feces assessed as nonconjugated form of 2'-chloro-9-hydroxy nordiazepam at 10 mg/kg, po after 4 days by two-dimensional TLC analysis; type: ADME, organism-based, Canis lupus familiaris; set-up: dose 10 mg/kg, route oral; conditions: in vivo, 96 h
[15] = Drug excretion in Beagle dog feces at 10 mg/kg, po measured within 6 days by liquid scintillation spectrophotometric analysis; type: ADME, organism-based, Canis lupus familiaris; set-up: dose 10 mg/kg, route oral; conditions: in vivo, 144 h
[16] = Drug excretion in Beagle dog urine assessed as nonconjugated form of lorazepam at 10 mg/kg, po after 4 days by two-dimensional TLC analysis; type: ADME, organism-based, Canis lupus familiaris; set-up: dose 10 mg/kg, route oral; conditions: in vivo, 96 h
[17] = Drug excretion in Beagle dog feces assessed as conjugated form of 2'-chloro-9-hydroxy nordiazepam at 10 mg/kg, po after 4 days by two-dimensional TLC analysis; type: ADME, organism-based, Canis lupus familiaris; set-up: dose 10 mg/kg, route oral; conditions: in vivo, 96 h
[18] = Drug metabolism in Beagle dog urine assessed as formation of lorazepam at 10 mg/kg, po after 4 days by TLC analysis; type: ADME, organism-based, Canis lupus familiaris; set-up: dose 10 mg/kg, route oral; conditions: in vivo, 96 h
[19] = Drug excretion in Beagle dog urine assessed as conjugated form of 2'-chloro-9-hydroxy nordiazepam at 10 mg/kg, po after 4 days by two-dimensional TLC analysis; type: ADME, organism-based, Canis lupus familiaris; set-up: dose 10 mg/kg, route oral; conditions: in vivo, 96 h
[20] = Drug excretion in Beagle dog feces assessed as conjugated form of lorazepam at 10 mg/kg, po after 4 days by two-dimensional TLC analysis; type: ADME, organism-based, Canis lupus familiaris; set-up: dose 10 mg/kg, route oral; conditions: in vivo, 96 h
[21] = Drug excretion in dog urine assessed as conjugated form of lorazepam at 10 mg/kg, po; type: ADME, organism-based, Canis lupus familiaris; set-up: dose 10 mg/kg, route oral; conditions: in vivo
[22] = Drug excretion in Beagle dog feces assessed as nonconjugated form of lorazepam at 10 mg/kg, po after 4 days by two-dimensional TLC analysis; type: ADME, organism-based, Canis lupus familiaris; set-up: dose 10 mg/kg, route oral; conditions: in vivo, 96 h
[23] = Drug metabolism in Beagle dog urine assessed as formation of 2'-chloro-9-hydroxy nordiazepam at 10 mg/kg, po after 4 days by TLC analysis; type: ADME, organism-based, Canis lupus familiaris; set-up: dose 10 mg/kg, route oral; conditions: in vivo, 96 h
[24] = Retention time of the compound; type: physicochemical

O=C1CN=C(c2ccccc2Cl)c2cc(Cl)ccc2N1 [DELORAZEPAM]
Drug excretion [1]: 1.5 %ID | Drug excretion [2]: 58 %ID | Drug excretion [3]: 16 %ID | Drug excretion [4]: 1 %ID | Drug excretion [5]: 3.8 %ID | Drug excretion [6]: 1.1 %ID | Drug excretion [7]: 5.3 %ID | Drug excretion [8]: 15.3 %ID | Drug metabolism [9]: 1.6 mg.equiv | dose excreted at 96 h [10]: 2.7% | dose excreted at 96 h [11]: 1.1% | Drug excretion [12]: 60.5 %ID | Drug excretion [13]: 2.8 %ID | Drug excretion [14]: 3.7 %ID | Drug excretion [15]: 28.5 %ID | Drug excretion [16]: 0.4 %ID | Drug excretion [17]: 7.3 %ID | Drug metabolism [18]: 10.7 mg.equiv | Drug excretion [19]: 2.5 %ID | Drug excretion [20]: 19.9 %ID | Drug excretion [21]: 13 %ID | Drug excretion [22]: 4.2 %ID | Drug metabolism [23]: 1.7 mg.equiv

O=C1Nc2ccc(Cl)cc2C(c2ccccc2Cl)=NC1O (centres undefined) [LORAZEPAM]
Retention_time [24]: 3.8 min
